“Also recorded” adds a separate entry of the source. Marks after values point to notes of the source that are not given here.
Legend:
[1] = system: IL-1β production in THP-1 cells; assay: LPS and PMA-stimulated IL-1β production in THP-1 cells; assay type: cell-based, human; settings: for effect on stimulated IL-1β production (in words): 10^−7 to 10^−4 M
Method: The human monocytic cell line THP-1 is obtained from the Cell Culture Unit of the University of Granada (Granada, Spain) (ECACC reference number: 88081201) and used to assay the effects of the different compounds on IL-1 production. These cells are cultured in RPMI 1640 (Life Technologies, Paisley, UK) supplemented with 10% fetal bovine serum (Life Technologies), 2 mM glutamine and 0.05 mM mercaptoethanol in a humidified 5% CO2 atmosphere at 37° C. Cells are seeded onto 24-well plates at a density of 2×10^6 cells ml^−1 and pre-incubated during 30 min with the different test compounds, at concentrations ranging from 10^−7 to 10^−4 M, and then stimulated with 1 μg ml^−1 LPS and 1 μM phorbol 12-myristate 13-acetate (PMA). After 20 h, plates are centrifuged at 1,000 g for 10 min and supematants are collected and stored at −80° C. for the determination of IL-1 levels by EIA using a kit system (Amersham Pharmacia Biotech, Buckinghamshire, UK).

[2] = system: IL-8 production in HT-29 cells; assay: LPS-stimulated IL-8 production in HT-29 cell cultures; assay type: cell-based, human; settings: for effect on IL-8 basal production: no LPS
Method: The human colon adenocarcinoma cell line HT-29, obtained from the Cell Culture Unit of the University of Granada (Granada, Spain) (ECACC reference number: 91072201), is used as a model of intestinal epithelium to test the ability of the different compounds to inhibit the production/release of IL-8. Cells are grown in Dulbecco's modified Eagle's medium supplemented with 10% fetal bovine serum (Boehringer Mannheim, Mannheim, Germany), 2 mM L-glutamine, 50,000 u l^−1 penicillin/streptomycin and 2.5 mg ml^−1 amphotericin B, in a humidified 5% CO2 atmosphere at 37° C. Cells are seeded into 12-well plates and grown to confluence. […] After 20 h, supernatants are collected, centrifuiged to remove debris at 7,000 g for 10 min and stored at −80° C. for the determination of IL-8 levels by enzyme-linked immunosorbent assay (Biosource International, Nivilles, Belgium).

[3] = system: TNF-α production in U-937 cells; assay: LPS-stimulated TNF-α production in PMA-differentiated U-937 cells; assay type: cell-based, human; settings: for effect on TNF-α production (in words): differentiated U-937 cells, LPS 4 h, 10^−6 to 10^−4 M
Method: The cells are cultured in RPMI 1640 (Life Technologies) supplemented with 10% fetal bovine serum and 2 mM glutamine in a humidified 5% CO2 atmosphere at 37° C. Cell concentration is adjusted to 0.5×10^6 cells ml, and monocytic differentiation is induced by incubation with 20 ng ml^−1 PMA for 24 h. After that, cells are harvested, centrifuged at 200 g for 5 min and plated onto 48-well plates at 210^6 cells ml^−1, pre-incubated for 30 min with the test compounds at concentrations ranging from 10^−6 to 10^−4 M, and stimulated with 0.1 μg ml^−1 LPS. After 4 h, plates are centrifuged at 1,000 g for 10 min and supernatants are collected and stored at −80° C. for the quantification of the TNF-α released in the culture medium by EIA using a commercial kit (R&D, Minneapolis, Minn., USA).

TNBS-induced rat colitis = settings: cited from earlier work
[4] = system: TNF-α production in mononuclear cells; assay: TNF-α production in mononuclear cells (FIG. 8); assay type: cell-based; settings: 10 uM
Excerpt: FIG. 8. Effects of UR-12746-S in the production of TNF-α in mononuclear cells.

reactivated TNBS colitis = assay: Reactivated TNBS colitis in rats: macroscopic colonic damage; assay type: in vivo, rat
Method: (§1) Colitis is induced by the method originally described by Morris et al. (1989), with minor modifications. Female Wistar rats (180-220 g) obtained from the Laboratory Animal Service of the University of Granada (Granada, Spain) are randomly distributed in several experimental groups. Animals are housed in makrolon cages (3-4 rats per cage) and maintained in an air-conditioned animal room with a 12 h light-dark cycle, and they are provided with free access to tap water and food (Panlab A.04). Animals are fasted overnight and anaesthetized with halothane. Under anesthesia, animals received 10 mg of TNBS dissolved in 0.25 ml of 50% ethanol (v v^−1) by means of a Teflon cannula inserted 8 cm through the anus. During and after TNBS administration rats are kept in a head-down position until they recovered from anesthesia, and then returned to their cage. […] Two additional groups are also included for reference: a non colitic group receiving intracolonically 0.25 ml of phosphate buffer saline (pH=7.4) and another colitic group which received only the first dose of TNBS (control group without relapse); both groups are orally administered with vehicle.
Animals are sacrificed with an overdose of halothane, and the entire colon is removed. The colonic segments are placed on an ice-cold plate, cleaned of fat and mesentery, and blotted on filter paper. Each specimen is weighed and its length measured under a constant load (2 g). […] The colon is subsequently divided longitudinally in 3 pieces for biochemical determinations. […] MPO activity is measured according to the technique described by Krawisz et al. (1984); the results are expressed as MPO units per gram of wet tissue and one unit of MPO activity is defined as that degrading 1 μmol min^−1 of hydrogen peroxide at 25° C. Samples for the determination of TNF-α and IL-1 synthesis are immediately weighed, minced on an ice-cold plate and suspended in a tube with 10 mM sodium phosphate buffer, pH=7.4, 1:5 w v^−1. The tubes are placed in a shaking water bath at 37° C. for 20 min and centrifuged at 9000 g for 30 s at 4° C. The supernatants are frozen at −80° C. until assay and cytokines are quantified by enzyme-linked immunosorbent assay (Amersham Pharmacia Biotech). All biochemical measurements are completed within one week from the time of sample collection and are performed in duplicate.

colonic TNF-α levels = assay: Reactivated TNBS colitis in rats: colonic TNF-α levels; assay type: in vivo, rat; settings: FIG. 6
Method: (§2) Colitis is induced by the method originally described by Morris et al. (1989), with minor modifications. Female Wistar rats (180-220 g) obtained from the Laboratory Animal Service of the University of Granada (Granada, Spain) are randomly distributed in several experimental groups. Animals are housed in makrolon cages (3-4 rats per cage) and maintained in an air-conditioned animal room with a 12 h light-dark cycle, and they are provided with free access to tap water and food (Panlab A.04). Animals are fasted overnight and anaesthetized with halothane. Under anesthesia, animals received 10 mg of TNBS dissolved in 0.25 ml of 50% ethanol (v v^−1) by means of a Teflon cannula inserted 8 cm through the anus. […]
(§3) Animals are sacrificed with an overdose of halothane, and the entire colon is removed. […] Each specimen is weighed and its length measured under a constant load (2 g). […] MPO activity is measured according to the technique described by Krawisz et al. (1984); the results are expressed as MPO units per gram of wet tissue and one unit of MPO activity is defined as that degrading 1 μmol min^−1 of hydrogen peroxide at 25° C. […] The supernatants are frozen at −80° C. until assay and cytokines are quantified by enzyme-linked immunosorbent assay (Amersham Pharmacia Biotech). […]

colonic IL-1β levels = assay: Reactivated TNBS colitis in rats: colonic IL-1β levels; assay type: in vivo, rat; settings: FIG. 5
Method: as §2, §3

[5] = system: colonic myeloperoxidase (MPO) activity; assay: Reactivated TNBS colitis in rats: colonic MPO activity; assay type: in vivo, rat
Method: as §1
Animals are sacrificed with an overdose of halothane, and the entire colon is removed. The colonic segments are placed on an ice-cold plate, cleaned of fat and mesentery, and blotted on filter paper. Each specimen is weighed and its length measured under a constant load (2 g). […] The colon is subsequently divided longitudinally in 3 pieces for biochemical determinations. […] MPO activity is measured according to the technique described by Krawisz et al. (1984); the results are expressed as MPO units per gram of wet tissue and one unit of MPO activity is defined as that degrading 1 μmol min^−1 of hydrogen peroxide at 25° C. […] The supernatants are frozen at −80° C. until assay and cytokines are quantified by enzyme-linked immunosorbent assay (Amersham Pharmacia Biotech). […]

[6] = system: HT-29, THP-1 and U-937 cells; settings: any assayed concentration, any cell types used
Method: Test compounds are prepared at 600 μM stock solution in PBS and further working dilutions are performed in culture medium. Percentage inhibition of cytokine production is calculated for every drug concentration.
The test compounds are prepared at 600 μM stock solution in PBS and further working dilutions are performed in culture medium. Percentage inhibition of cytokine production is calculated for every drug concentration.

[7] = 25 mg kg^−1 oral daily, 3 wk (after second TNBS)
[8] = 25 mg kg^−1 oral daily, 4 wk (after second TNBS)
[9] = 50 mg kg^−1 oral daily, 3 wk (after second TNBS)
[10] = 50 mg kg^−1 oral daily, 4 wk (after second TNBS)
[11] = two weeks after the initial colonic challenge

Molecule: Nc1ccc(O)c(C(=O)O)c1 [5-ASA, 5-aminosalicylic acid]
- effect on stimulated IL-1β production (in words) [1]: only a weak effect; also recorded: weak inhibitory activity
- inhibition of stimulated IL-1β production ([1]; the different concentrations assayed): 10-20%
- inhibition at 1 µM ([2]; Homo sapiens, LPS, achieved at 10^−6 M, not higher up to 10^−4 M, read-out: maximum inhibitory effect on LPS-stimulated IL-8 production): 30 to 40%
- effect on IL-8 basal production [2]: no significant effect
- effect on TNF-α production (in words) [3]: devoid of any significant effect; also recorded: inactive

Molecule: Cc1nc2cnccc2n1CC1CCN(C(=O)C=C(c2ccccc2)c2ccc(/N=N\c3ccc(O)c(C(=O)O)c3)cc2)CC1 [UR-12746 free acid, (Z)-2-hydroxy-5-[[4-[3-[4-[(2-methyl-1H-imidazo[4,5-c]pyridin-1-yl)methyl]-1-piperidinyl]-3-oxo-1-phenyl-1-propenyl]phenyl]azo] benzoic acid]
- IL-1β production (TNBS-induced rat colitis; 50-100 mg/kg, 4 week time span): reduce IL-1β production
- Platelet Activating Factor (PAF) activity (TNBS-induced rat colitis; 50-100 mg/kg, 4 week time span): inhibit Platelet Activating Factor (PAF) activity
- colonic myeloperoxidase (MPO) activity (TNBS-induced rat colitis; 50-100 mg/kg, 4 week time span): reduce colonic myeloperoxidase (MPO) activity
- LTB4 production (TNBS-induced rat colitis; only at 100 mg/kg and only after 3 and 4 weeks of administration): reduce LTB4 production
- colonic damage (TNBS-induced rat colitis; only at the 100 mg/kg dosage): significant reduction in colonic damage

Molecule: Cc1nc2cnccc2n1CC1CCN(C(=O)C=C(c2ccccc2)c2ccc(/N=N\c3ccc(O)c(C(=O)[O-])c3)cc2)CC1.[Na+] [UR-12746-S, (Z)-2-hydroxy-5-[[4-[3-[4-[(2-methyl-1H-imidazo[4,5-c]pyridin-1-yl)methyl]-1-piperidinyl] -3-oxo-1-phenyl-1-propenyl]phenyl]azo] benzoic acid sodium salt]
- inhibition of TNF-α production compared with UR-12715 or a combination of UR-12715 and 5-ASA [4]: to a greater extent
- colonic weight/length ratio, mean ± s.e.mean (reactivated TNBS colitis; 25 mg kg^−1 oral daily, 1 wk): 146.6 ± 8.1 mg/cm
- damage score (0-10), median (range) (reactivated TNBS colitis; 25 mg kg^−1 oral daily, 1 wk): 5.5 (4-6)
- colonic weight/length ratio, mean ± s.e.mean (reactivated TNBS colitis; 25 mg kg^−1 oral daily, 2 wk): 143.6 ± 4.9 mg/cm
- damage score (0-10), median (range) (reactivated TNBS colitis; 25 mg kg^−1 oral daily, 2 wk): 5 (4-5)
- colonic weight/length ratio, mean ± s.e.mean (reactivated TNBS colitis; [7]): 150.5 ± 4.3 mg/cm
- damage score (0-10), median (range) (reactivated TNBS colitis; [7]): 5 (4-6)
- colonic weight/length ratio, mean ± s.e.mean (reactivated TNBS colitis; [8]): 143.2 mg/cm
- damage score (0-10), median (range) (reactivated TNBS colitis; [8]): 5 (2-6)
- colonic weight/length ratio, mean ± s.e.mean (reactivated TNBS colitis; 50 mg kg^−1 oral daily, 1 wk): 137.0 ± 8.4 mg/cm
- damage score (0-10), median (range) (reactivated TNBS colitis; 50 mg kg^−1 oral daily, 1 wk): 4.5 (4-6)
- colonic weight/length ratio, mean ± s.e.mean (reactivated TNBS colitis; 50 mg kg^−1 oral daily, 2 wk): 120.0 ± 5.9 mg/cm
- damage score (0-10), median (range) (reactivated TNBS colitis; 50 mg kg^−1 oral daily, 2 wk): 4 (3-5)
- colonic weight/length ratio, mean ± s.e.mean (reactivated TNBS colitis; [9]): 142.3 ± 3.1 mg/cm
- damage score (0-10), median (range) (reactivated TNBS colitis; [9]): 4 (3-5)*
- colonic weight/length ratio, mean ± s.e.mean (reactivated TNBS colitis; [10]): 110.8 mg/cm
- damage score (0-10), median (range) (reactivated TNBS colitis; [10]): 3 (2-4)*
- colonic macroscopic damage score and colonic weight/length ratio after reactivation, compared with control colitic animals without relapse (reactivated TNBS colitis; after second TNBS dose): no statistical differences
- colonic TNF-α levels after second administration of TNBS (colonic TNF-α levels; 50 mg kg^−1, after second TNBS): significantly reduced
- colonic TNF-α levels (colonic TNF-α levels; [11]): without showing any significant effect
- colonic IL-1β levels after second administration of TNBS (colonic IL-1β levels; after second TNBS): effectively prevents the increase in IL-1β levels
- colonic IL-1β levels (colonic IL-1β levels; [11]): decrease colonic IL-1β levels significantly
- colonic MPO activity after colitis relapse ([5]; 25 and 50 mg kg^−1, after second TNBS, FIG. 4): prevent the increased activity
- colonic MPO activity ([5]; 25 and 50 mg kg^−1, first two weeks after the initial TNBS, FIG. 4): reduction in colonic MPO activity
- effect in reducing MPO activity in comparison with sulphasalazine ([5]; same doses, same experimental conditions): higher effect
- potency in inhibiting TNF-α production compared to the individual components, a combination of the components and sulfasalazine ([3]; U-937 cells, FIG. 7): more potent

Molecule: Cc1nc2cnccc2n1CC1CCN(C(=O)C=C(c2ccccc2)c2ccc(N=Nc3ccc(O)c(C(=O)O)c3)cc2)CC1 [trans-1-[[1-[3-[4-(4-hydroxy-3-carboxyphenylazo)phenyl]-3-phenylpropenoyl]-4-piperidyl]methyl]-1H-2-methylimidazole [4,5-c] pyridine]
- viability (trypan blue exclusion) [6]: higher than 95%

Molecule: (Z)-1-[4-(3-aminophenyl)-1-oxo-3-phenyl-2-propenyl]-4-[(2-methyl-lH-imidazo[4,5-c]pyridin-1-yl)methyl] piperidine [UR-12715]
- effect on stimulated IL-1β production (in words) [1]: inhibited; also recorded: inhibits the stimulated cytokine production in a concentration-dependent way
- effect on IL-8 basal production [2]: no significant effect
- effect on TNF-α production (in words) [3]: inhibited; also recorded: concentration-dependent inhibitory effect

— patent US20030119792A1, “Method of inhibiting the production and/or effects of intestinal pro-inflammatory cytokines, prostaglandins and others” (priority 2001, published 2003)
